pIC50: −log10 of the molar value. Where a SMILES comes first, the peptide text is derived from it. Bridges are numbered along the chain shown (N, C = ends). [ ]: non-standard residue; d: D form. 2Nal = N[C@@H](Cc1ccc2ccccc2c1)C(=O)O; d2Nal = N[C@H](Cc1ccc2ccccc2c1)C(=O)O

The results in this text go back to patent US5753617A, “Peptide inhibitors of cellular adhesion” (Centocor, Inc., priority 1995, dated 1998).

In the assay the target is T1, P-selectin (Homo sapiens, UniProt P16109).
T1 construct: P-selectin is isolated from human platelet lysates; from tissue; host or cells: human platelets (outdated platelet packs from a blood bank)
T1 sequence (P16109 42-830): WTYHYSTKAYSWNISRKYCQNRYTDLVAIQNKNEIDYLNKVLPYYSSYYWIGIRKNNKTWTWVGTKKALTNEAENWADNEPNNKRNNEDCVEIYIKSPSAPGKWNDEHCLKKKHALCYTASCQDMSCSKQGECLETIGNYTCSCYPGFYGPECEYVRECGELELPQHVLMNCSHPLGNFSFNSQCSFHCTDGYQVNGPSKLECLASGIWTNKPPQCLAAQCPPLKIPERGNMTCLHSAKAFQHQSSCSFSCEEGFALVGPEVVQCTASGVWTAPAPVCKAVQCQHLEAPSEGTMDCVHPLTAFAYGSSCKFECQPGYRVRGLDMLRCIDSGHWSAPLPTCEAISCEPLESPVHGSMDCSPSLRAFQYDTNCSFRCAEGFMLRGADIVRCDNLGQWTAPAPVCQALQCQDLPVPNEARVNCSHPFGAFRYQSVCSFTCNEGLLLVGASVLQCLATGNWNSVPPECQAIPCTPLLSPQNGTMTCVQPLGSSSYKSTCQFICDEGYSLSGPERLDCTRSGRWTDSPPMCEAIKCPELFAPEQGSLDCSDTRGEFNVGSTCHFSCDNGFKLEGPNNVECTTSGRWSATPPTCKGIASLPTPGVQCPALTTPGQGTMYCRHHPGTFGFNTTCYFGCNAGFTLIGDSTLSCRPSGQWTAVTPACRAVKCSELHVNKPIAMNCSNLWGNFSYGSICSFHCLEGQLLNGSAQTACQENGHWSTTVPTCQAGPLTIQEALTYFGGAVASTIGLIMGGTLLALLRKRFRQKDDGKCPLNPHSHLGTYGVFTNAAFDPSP
Put plainly: Inhibition of human neutrophil adhesion to purified P-selectin immobilized on plastic wells. It is filed as cell-based. The following applies: inhibiting the binding of human neutrophils to P-selectin. The source says:
Peptides can be screened for their ability to inhibit adhesion to cells, for example, neutrophil adhesion to purified P-selectin immobilized on plastic wells, using the assay described by Geng, et al., Nature 343, 757-760 (1990). Human neutrophils are isolated from heparinized whole blood by density gradient centrifugation on Mono-Poly resolving media, Flow Laboratories. Neutrophil suspensions are greater than 98% pure and greater than 95% viable by trypan blue exclusion. For adhesion assays, neutrophils are suspended at a concentration of 2×10^6 cells/mL in Hanks' balanced salt solution containing 1.26 mM Ca^2+ and 0.81 mM Mg^2+ (HBSS, Gibco) with […] human serum albumin (HBSS/HSA). Adhesion assays are conducted in triplicate in 96-well microliter plates, Corning, incubated at 4° C. overnight with 50 microliters of various protein solutions. P-selectin is isolated from human platelet lysates by immunoaffinity chromatography on antibody S12-Sepharose™ and ion-exchange chromatography on a Mono-Q™ column (FLPC, Pharmacia Fine Chemicals), as follows. Outdated human platelet packs (100 units) obtained from a blood bank and stored at 4° C. are pooled, adjusted to 5 mM EDTA at pH 7.5, centrifuged at 4,000 rpm for 30 minutes in 1 liter bottles, then washed three times with 1 liter of 0.1M NaCl, 20 mM Tris pH 7.5 (TBS), 5 mM EDTA, 5 mM benzamidine. The pellets are then resuspended in a minimum amount of wash buffer and made 1 mM in DIFP, then frozen in 50 mL screwtop tubes at -80° C. The frozen platelets are thawed and resuspended in 50 mL TBS, 5 mM benzamidine, 5 mM EDTA pH 7.5, […]. The suspension is frozen and thawed two times in a dry ice-acetone bath using a 600 mL lyophilizing flask, then homogenized in a glass/teflon mortar and pestle and made 1 mM in DIFP. The NaCl concentration is adjusted to 0.5M with a stock solution of 4M NaCl. After stirring the suspension at 4° C., it is centrifuged in polycarbonate tubes at 33,000 rpm for 60 minutes at 4° C. The supernatant (0.5M NaCl wash) is removed and saved; this supernatant contains the soluble form of P-selectin. Care is taken not to remove the top part of the pellet with the supernatant. The pellets are then homogenized in extraction buffer (TBS, 5 mM benzamidine, 5 mM EDTA, pH 7.5, 100 μM leupeptin, 2% Triton X-100). After centrifugation at 19,500 rpm for 25 minutes at 4° C., the supernatant is removed. The extraction procedure is repeated with the pellet and the supernatant is combined with the first supernatant. The combined extracts, which contain the membrane form of P-selectin, are adjusted to 0.5M NaCl. The soluble fraction (0.5M NaCl wash) and the membrane extract (also adjusted to 0.5M NaCl) are absorbed with separate pools of the monoclonal antibody S12 (directed to P-selectin) previously couple […]) at 5 mg/mL for 2 hours at 4° C. After letting the resins settle, the supernatants are removed. The S12 Affigel containing bound GMP-140 is then loaded into a column and washed overnight at 4° C. with 400 mL of 0.5M NaCl, 20 mM Tris pH 7.5, 0.01% Lubrol PX. Bound P-selectin is eluted from the S12 Affigel with 100 mL of 80% ethylene glycol, 1 mM MES pH 6.0, 0.01% Lubrol PX. Peak fractions with absorbance at 280 nm are pooled. Eluates are dialyzed against TBS with 0.05% Lubrol, then applied to a Mono Q column (FPLC from Pharmacia). The concentrated protein is step eluted with 2M NaCl, 20 mM Tris pH 7.5 (plus 0.05% Lubrol PX for the membrane fraction). Peak fractions are dialyzed into TBS pH 7.5 (plus 0.05% Lubrol PX for the membrane fraction). P-selectin is plated at 5 micrograms/mL and the control proteins: human serum albumin (Alb), platelet glycoprotein IIb/IIIa (IIb), von Willebrand factor (vWF), fibrinogen (FIB), thrombomodulin (TM), gelatin (GEL) or human serum (HS), are added at 50 micrograms/mL. […]
Consider `CC(C)[C@@H](NC(=O)[C@@H](Cc1c[nH]c2ccccc12)NC(=O)[C@H](NC(=O)[C@@H](Cc1ccc2ccccc2c1)NC(=O)[C@H]1CSSC[C@@H](NC(=O)[C@@H](CCCCN)NC(=O)[C@H](N)CCCNC(=N)N)C(=O)NCC(=O)N[C@@H](Cc2ccccc2)C(=O)N1)[C@H](C)O)C(N)=O` [(51)] (H-[dR][dK][dC]GF[dC][d2Nal][dT][dW][dV]-NH2; disulfide 3-6), for which the pIC50 (in general, the IC50 on a negative log10 scale, so that one unit is a factor of ten) was 5.11.
Regarding `CC[C@H](C)[C@@H]1NC(=O)[C@H](CCCCN)NC(=O)[C@@H](N)CCC(=O)NCCCC[C@@H](C(=O)N[C@@H](Cc2c[nH]c3ccccc23)C(=O)N[C@H](C(=O)N[C@@H](Cc2c[nH]c3ccccc23)C(=O)N[C@H](C(N)=O)C(C)C)[C@@H](C)O)NC(=O)CNC(=O)CNC1=O` [Preferred peptide (1), Cyclo(glutamyl-lysyl-isoleucyl-glycyl-glycyl-lysyl)-tryptophyl-threonyl-tryptophyl-valine-amide] (H-EKIGGKWTWV-NH2; lactam 1-6), the pIC50 is 3.94.
As to `CC(C)[C@@H](NC(=O)[C@@H](Cc1c[nH]c2ccccc12)NC(=O)[C@H](NC(=O)[C@@H](Cc1c[nH]c2ccccc12)NC(=O)[C@@H]1CSSC[C@@H](NC(=O)[C@@H](CCCCN)NC(=O)[C@H](N)CCCNC(=N)N)C(=O)NCC(=O)N[C@@H](Cc2ccccc2)C(=O)N1)[C@H](C)O)C(N)=O` [(91)] (H-[dR][dK][dC]GFC[dW][dT][dW][dV]-NH2; disulfide 3-6), the pIC50 is 4.37.
The same measure for `CC(C)[C@@H](NC(=O)[C@@H](Cc1c[nH]c2ccccc12)NC(=O)[C@H](NC(=O)[C@@H](Cc1c[nH]c2ccccc12)NC(=O)[C@H]1CSSC[C@@H](NC(=O)[C@@H](CCCCN)NC(=O)[C@H](N)CCCNC(=N)N)C(=O)NCC(=O)N[C@@H](Cc2ccc3ccccc3c2)C(=O)N1)[C@H](C)O)C(N)=O` [(73)] (H-[dR][dK][dC]G[2Nal][dC][dW][dT][dW][dV]-NH2; disulfide 3-6): 5.49; for `CC(=O)N[C@H](CCCCN)C(=O)N[C@@H]1CSSC[C@H](C(=O)N[C@H](Cc2c[nH]c3ccccc23)C(=O)N[C@@H](C(=O)N[C@H](Cc2c[nH]c3ccccc23)C(=O)N[C@@H](C(N)=O)C(C)C)[C@H](C)O)NC(=O)[C@H](Cc2ccc(O)cc2)NC(=O)CNC1=O` [(104)] (Ac-[dK][dC]GY[dC][dW][dT][dW][dV]-NH2; disulfide 2-5): 3.72.
The same measure for `CC[C@H](C)[C@@H]1NC(=O)[C@H](CCCCN)NC(=O)[C@@H](N)CCCCNC(=O)CC[C@@H](C(=O)N[C@@H](Cc2c[nH]c3ccccc23)C(=O)N[C@H](C(=O)N[C@@H](Cc2c[nH]c3ccccc23)C(=O)N[C@H](C(N)=O)C(C)C)[C@@H](C)O)NC(=O)CNC(=O)CNC1=O` [(2)] (H-KKIGGEWTWV-NH2; lactam 1-6): 4.16; for `CC(C)[C@@H](NC(=O)[C@@H](Cc1c[nH]c2ccccc12)NC(=O)[C@H](NC(=O)[C@@H](Cc1c[nH]c2ccccc12)NC(=O)[C@H]1CSSC[C@@H](NC(=O)[C@@H](CCC(N)=O)NC(=O)[C@H](N)CCCNC(=N)N)C(=O)NCC(=O)N[C@@H](Cc2ccccc2)C(=O)N1)[C@H](C)O)C(N)=O` [(111)] (H-[dR][dQ][dC]GF[dC][dW][dT][dW][dV]-NH2; disulfide 3-6): 4.74.
In turn, `CC(C)[C@@H](NC(=O)[C@@H](Cc1c[nH]c2ccccc12)NC(=O)[C@H](NC(=O)[C@@H](Cc1c[nH]c2ccccc12)NC(=O)[C@H]1CSSC[C@@H](NC(=O)[C@@H](CCCCN)NC(=O)[C@H](N)CC(=O)O)C(=O)NCC(=O)N[C@@H](Cc2ccccc2)C(=O)N1)[C@H](C)O)C(N)=O` [(117)] (H-[dD][dK][dC]GF[dC][dW][dT][dW][dV]-NH2; disulfide 3-6) had a pIC50 of 3.62.
For the compound `CC(C)[C@H](NC(=O)[C@H](Cc1c[nH]c2ccccc12)NC(=O)[C@@H](NC(=O)[C@H](Cc1c[nH]c2ccccc12)NC(=O)[C@@H]1CSSC[C@H](N)C(=O)N[C@@H](CCCNC(=N)N)C(=O)NCC(=O)NCC(=O)N1)[C@@H](C)O)C(N)=O` [(6)] (H-CRGGCWTWV-NH2; disulfide 1-5), the pIC50 is 4.27.
With `CC(C)[C@@H](NC(=O)[C@@H](Cc1c[nH]c2ccccc12)NC(=O)[C@H](NC(=O)[C@@H](Cc1ccccc1)NC(=O)[C@H]1CSSC[C@@H](NC(=O)[C@@H](CCCCN)NC(=O)[C@H](N)CCCNC(=N)N)C(=O)NCC(=O)NCC(=O)N1)[C@H](C)O)C(N)=O` [(14)] (H-[dR][dK][dC]GG[dC][dF][dT][dW][dV]-NH2; disulfide 3-6), the negative-log IC50 (pIC50) was 4.40.
The same measure for `CC(C)[C@@H](NC(=O)[C@@H](Cc1c[nH]c2ccccc12)NC(=O)[C@H](NC(=O)[C@@H](Cc1c[nH]cn1)NC(=O)[C@H]1CSSC[C@@H](NC(=O)[C@@H](CCCCN)NC(=O)[C@H](N)CCCNC(=N)N)C(=O)NCC(=O)N[C@@H](Cc2ccccc2)C(=O)N1)[C@H](C)O)C(N)=O` [(48)] (H-[dR][dK][dC]GF[dC][dH][dT][dW][dV]-NH2; disulfide 3-6): 3.39; for `CC(C)[C@@H](NC(=O)[C@@H](Cc1c[nH]cn1)NC(=O)[C@H](NC(=O)[C@@H](Cc1c[nH]c2ccccc12)NC(=O)[C@H]1CSSC[C@@H](NC(=O)[C@@H](CCCCN)NC(=O)[C@H](N)CCCNC(=N)N)C(=O)NCC(=O)N[C@@H](Cc2ccccc2)C(=O)N1)[C@H](C)O)C(N)=O` [(61)] (H-[dR][dK][dC]GF[dC][dW][dT][dH][dV]-NH2; disulfide 3-6): 4.18; for `CC(C)[C@@H](NC(=O)[C@@H](Cc1c[nH]c2ccccc12)NC(=O)[C@H](NC(=O)[C@@H](Cc1c[nH]c2ccccc12)NC(=O)[C@H]1CSSC[C@@H](N)C(=O)NCC(=O)NCC(=O)N1)[C@H](C)O)C(N)=O` [(28)] (H-[dC]GG[dC][dW][dT][dW][dV]-NH2; disulfide 1-4): 3.51.
As for `CC(C)[C@@H](NC(=O)[C@@H](Cc1c[nH]c2ccccc12)NC(=O)[C@H](NC(=O)[C@@H](Cc1c[nH]c2ccccc12)NC(=O)[C@H]1CSSC[C@@H](NC(=O)[C@@H](CCCCN)NC(=O)[C@H](N)CCCNC(=N)N)C(=O)NCC(=O)N[C@@H](Cc2c[nH]c3ccccc23)C(=O)N1)[C@H](C)O)C(N)=O` [(60)] (H-[dR][dK][dC]GW[dC][dW][dT][dW][dV]-NH2; disulfide 3-6), the negative logarithm of the IC50 (pIC50) was 5.85.
